Reference: patent US20050203119A1, “Dihydropyridine compounds for treating or preventing metabolic disorders” (priority 2003, published 2005)
pEC50: −log10 of the molar value.

Columns and labels:
C57BLKS/J-m+/+Lepr db = assay: Glucose reduction, Compound 36 in combination with rosiglitazone, db/db mice, 6 days (Example 117); assay type: in vivo, mouse; details: for Serum Glucose % Normalized Reduction: relative to vehicle
Protocol: C57BLKS/J-m+/+Lepr db were obtained from the Institute for Animal Reproduction (IAR, Japan), and randomized for equivalent mean blood glucose on day 0 (n=8/group). One group served as the vehicle control (0.5% methyl cellulose). […] Group 3 received 0.5 mg/kg rosiglitazone. […] All agents were administered once daily for 6 consecutive days starting on day 1. […] Post-treatment serum glucose value was expressed as percent pre-treatment from respective pre-treatment values, and percent reduction relative to vehicle control was calculated by subtracting from the percent pre-treatment of vehicle control.

male ob/ob mice = assay: Oral glucose tolerance test in glucose-loaded ob/ob mice (Example 114, FIG. 1); assay type: in vivo, mouse
Protocol: Blood glucose was measured at 0, 30, 120 and 240 min post-glucose loading. Metformin and rosiglitazone were used as references.

[1] = test system: NIDDM male mice (C57BLKS/J-m+/+Lepr db); assay: 7 day baseline glucose test in db/db mice (Example 119); assay type: in vivo, mouse; details: for Serum Glucose % Pre-Treatment Baseline: 3 hours after dose
Protocol: Non-insulin dependent diabetic mellitus (NIDDM) male mice (C57BLKS/J-m+/+Lepr db), weighing 50±5 g and 9-10-week old, were used. The animals were housed in Individually Ventilated Cages Racks (IVC Racks) throughout the experiment and all animals were allowed free access to sterilized Lab chow and sterilized distilled water. Compounds 39, 41 and 64 at 50 mg/kg as well as vehicle (0.5% Methylcellulose) were administered orally once daily for 7 consecutive days to test animals after the first blood sampling (pre-treatment). The post-treatment blood samples were withdrawn from the orbital sinus at 3 hours after administration of daily dose on day 3 and on day 7. Serum glucose levels in the pre- and post-treatment were determined by enzymatic (Mutaratase-GOD) methods. Post-treatment serum glucose values were expressed in percentage of respective pre-treatment values. Percentage reductions were expressed in percentage of pre-treatment values of test substance relative to percentage of pre-treatment values of vehicle. All percentages were calculated and unpaired; Student's t test was then applied to establish significant difference between the test compound-treated and vehicle control groups. Differences are considered significant at P<0.05.

primary rat hepatocytes = assay: In vitro cytotoxicity study on primary rat hepatocytes (MTS); assay type: cell-based; details: Hepatocyte, 20 hours treatment with 0.4, 2, 10 and 50 μM, absorbance at 490 nm, read-out: Average EC50 (hepatocytes from at least 2 rats)
Protocol: Male SD rats having body weights of approximately 200 g were used for the study. Hepatocytes were freshly isolated and seeded with 15,000 cells/well in 96 wells coated with 100 μl collagen. The hepatocytes were cultured for 3-4 hours with HCM Bulletkit medium (Clonetics #CC-3198) then treated with 0.4 μM, 2 μM, 10 μM and 50 μM of a test compound for 20 hours. Flepatocytes were then incubated with MTS reagent (Promega #G5421) for 2-3 hours and absorbance in each well at […] was measured to determine the number of living cells in each well (the absorbance at 490 nm is directly proportional to the number of living cells in the well). The EC50 for each test compound was calculated with the Excel Xlfit wizard program based on the optical density values compared with vehicle treated cells.

db/db mice = assay: Combination studies of rosiglitazone or metformin with Compound 39, 7 days (Example 121); assay type: in vivo, mouse
Protocol: Serum glucose levels in the pre-and post-treatment were determined enzymatically (Mutaratase-GOD). Post-treatment serum glucose values were expressed in percentage of respective pre-treatment values. Percentage reductions were expressed in percentage of pre-treatment values of test substance relative to percentage of respective pre-treatment values of vehicle. All percentages were calculated and unpaired; Student's t test was then applied to establish significant difference between the test compound-treated and vehicle control groups. Differences are considered significant at P<0.05.

[2] = test system: C57BLKS/J-m+/+Lepr db male animals; assay: Glucose reduction by Compound 9 in db/db mouse model (Example 112); assay type: in vivo; details: 3.5 hours after administration
Protocol: C57BLKS/J-m+/+Lepr db male animals (8 weeks old) were purchased from the Jackson Laboratory (Bar Harbor, Me.) in this study. All animals were acclimated for at least one week, and randomized for equivalent mean blood glucose on day 0. Animals were divided into either vehicle or treatment groups (n=8/group). Compound 9 was formulated in 0.5% methylcellulose (ps400) and administered by oral gavage at 50 mg/kg once daily for 7 consecutive days. Blood glucose was monitored using One Touch Basic glucose monitor (Abbott) 3.5 hours after administration of test compound on day 3 and 7.

Male SD rats = details: rat, in vivo
Protocol: Male SD rats weighing 350-420 g were anesthetized with 2-3% isoflurane. The femoral artery and vein were catheterized and connected to a mean arterial blood pressure (MAP) and heart rate (HR) monitor and a continuous intravenous infusion pump. Under anesthesia, MAP and HR were recorded 10-20 minutes prior to and during the continuous intravenous infusion of test compounds for 60-70 minutes. The infusion rate, 0.14-0.16 ml/kg/minute, was determined on the basis of vehicle tolerance. The infusion doses, 1.0-1.25 mg/kg/minute, were selected, depending upon the solubility of the compound and effects on MAP and HR of the positive control compounds at the lethal dose. The maximal effective dose or lethal dose of test compounds were determined accordingly.

[3] = test system: male db/db mice (BKS.Cg-m+/+Lepr db/J); assay: Intraperitoneal glucose tolerance test (IPGTT) in db/db mice (Example 122, FIGS. 3 and 5); assay type: in vivo, mouse; details: Mus musculus, po, 0.75 h, read-out: Ave. % Change in Glucose Intolerance at +45 min
Protocol: Six to eight week old, male db/db mice (BKS.Cg-m+/+Lepr^db/J; stock number 000642), homozygous for a mutation in the gene encoding the leptin receptor, were purchased from The Jackson Laboratory (Bar Harbor, Me. USA). Animals were singly housed in conventional caging on a 12 hr/12 hr light/dark cycle, acclimated for at least five days prior to use and fed normal laboratory chow ad libitum between experiments. Studies were conducted with animals between seven and fourteen weeks of age. Animals were used for a maximum of five consecutive studies, with a minimum recovery period of five days between studies.
To perform an IPGTT or OGTT, db/db mice were fasted overnight beginning on day 0 at −17.5 to −18.5 hrs relative to the glucose dose on day 1 (all time points below are stated relative to the time of an intraperitoneal or oral glucose dose on day 1). At −4.5 hrs, animals were weighed, blood was collected by tail vein lancing and fasted blood glucose levels determined using a hand-held glucometer (MediSense Precision Xtra or LifeScan OneTouch Ultra). Animals were randomized into dosing groups of 6-7 animals, with each group having a similar average fasted blood glucose level. At −3 hr, animals were dosed with vehicle alone, a test compound or metformin by oral gavage at 5 ml/kg body weight. […] Blood glucose levels were determined as above at −45 min and +45 min, and also +90 min and/or +150 min (see FIG. 3 and the Table in this section). Alternatively, blood glucose levels were determined at −30 min, +30 min, +60 min and +120 min (see FIGS. 4 and 5).
Compound doses were adjusted to be the molar equivalents of 50 mg/kg of Compound 39. The percent change in blood glucose between −45 min and a time point, y, after glucose dosing (e.g., +45 min, +150 min, ect.) was calculated for each animal using formula 1: [formula]
The percent change in blood glucose between −45 min and a time point, y, after glucose dosing was calculated for each animal using formula 1.
Average percent change in glucose intolerance was calculated using Formula 2, as noted in the table below. […]

[4] = Day 3, 50 mg/kg orally once daily
[5] = Day 7, 50 mg/kg orally once daily
[6] = Day 3, rosiglitazone 0.5 mg/kg orally daily
[7] = Day 7, rosiglitazone 0.5 mg/kg orally daily
[8] = Day 3, metformin 150 mg/kg orally daily
[9] = Day 7, metformin 150 mg/kg orally daily

Structure (SMILES): CCOC(=O)C1=C(COCCN)NC2=C(C(=O)CC(C)(C)C2)[C@@H]1c1ccccc1Cl [Compound 36, S-(−)-2-(2-amino-ethoxymethyl)-4-(2-chloro-phenyl)-7,7-dimethyl-5-oxo-1,4,5,6,7,8-hexahydro-quinoline-3-carboxylic acid ethyl ester; complex with benzenesulfonic acid]
- Serum Glucose % Pre-Treatment Baseline (C57BLKS/J-m+/+Lepr db; Day 3, Compound 36 10 mg/kg): 103.0 ± 2.4%
- Serum Glucose % Normalized Reduction (C57BLKS/J-m+/+Lepr db; Day 3, Compound 36 10 mg/kg): (2.6) %
- Serum Glucose % Pre-Treatment Baseline (C57BLKS/J-m+/+Lepr db; Day 3, Compound 36 25 mg/kg): 100.3 ± 2.8%
- Serum Glucose % Normalized Reduction (C57BLKS/J-m+/+Lepr db; Day 3, Compound 36 25 mg/kg): (5.3) %
- Serum Glucose % Pre-Treatment Baseline (C57BLKS/J-m+/+Lepr db; Day 6, Compound 36 10 mg/kg): 100.7 ± 4.6%
- Serum Glucose % Normalized Reduction (C57BLKS/J-m+/+Lepr db; Day 6, Compound 36 10 mg/kg): (7.2) %
- Serum Glucose % Pre-Treatment Baseline (C57BLKS/J-m+/+Lepr db; Day 6, Compound 36 25 mg/kg): 99.7 ± 5.4%
- Serum Glucose % Normalized Reduction (C57BLKS/J-m+/+Lepr db; Day 6, Compound 36 25 mg/kg): (8.2) %
- blood glucose after oral glucose loading (male ob/ob mice; 25 mg/kg orally, glucose 3 g/kg, fasted ob/ob mice): approximately 200 mg/dl

Structure (SMILES): CC1(C)CC(=O)C2=C(C1)NC(COCCN)=C(C#N)C2c1ccccc1Cl (stereo not shown) [Compound 41, 2-(2-Amino-ethoxymethyl)-4-(2-chloro-phenyl)-7,7-dimethyl-5-oxo-1,4,5,6,7,8-hexahydro-quinoline-3-carbonitrile]
- serum glucose % Reduction relative to vehicle [1, 4]: (2) %
- Serum Glucose % Pre-Treatment Baseline [1, 4]: 93.3%
- serum glucose % Reduction relative to vehicle [1, 5]: (6) %
- Serum Glucose % Pre-Treatment Baseline [1, 5]: 94.1%

Structure (SMILES): CCOC(=O)C1=C(COCCN)NC2=C(C(=O)CC(C)(C)C2)C1c1ccco1 (stereo not shown) [Compound 96, 2-(2-Amino-ethoxymethyl)-4-furan-2-yl-7,7-dimethyl-5-oxo-1,4,5,6,7,8-hexahydro-quinoline-3-carboxylic acid ethyl ester]
- pEC50 (primary rat hepatocytes): < 4.30

Structure (SMILES): CCOC(=O)C1=C(COCCN)NC2=C(C(=O)CC(C)(C)C2)C1c1ccccc1O (stereo not shown) [Compound 64, 2-(2-Amino-ethoxymethyl)-4-(2-hydroxy-phenyl)-7,7-dimethyl-5-oxo-1,4,5,6,7,8-hexahydro-quinoline-3-carboxylic acid ethyl ester]
- pEC50 (primary rat hepatocytes): < 4.30
- serum glucose % Reduction relative to vehicle [1, 4]: (10) %
- Serum Glucose % Pre-Treatment Baseline [1, 4]: 85.9%
- serum glucose % Reduction relative to vehicle [1, 5]: (12) %
- Serum Glucose % Pre-Treatment Baseline [1, 5]: 88.6%

Structure (SMILES): CCOC(=O)C1=C(COCCN)NC2=C(C(=O)CC(C)(C)C2)[C@H]1c1cccnc1 [39 R-enantiomer, (+)-(R)-2-(2-Amino-ethoxymethyl)-7,7-dimethyl-5-oxo-4-pyridin-3-yl-1,4,5,6,7,8-hexahydro-quinoline-3-carboxylic acid ethyl ester]
- pEC50 (primary rat hepatocytes): < 4.30

Structure (SMILES): CCOC(=O)C1=C(COCCN)NC2=C(C(=O)CC(C)(C)C2)C1c1ccc(C)o1 (stereo not shown) [Compound 206, 2-(2-Amino-ethoxymethyl)-7,7-dimethyl-4-(5-methyl-furan-2-yl)-5-oxo-1,4,5,6,7,8-hexahydro-quinoline-3-carboxylic acid ethyl ester]
- pEC50 (primary rat hepatocytes): < 4.30

Structure (SMILES): CCOC(=O)C1=C(COCCN)N(C)C2=C(C(=O)CC(C)(C)C2)C1c1cccnc1 (stereo not shown) [Compound 66, 2-(2-Amino-ethoxymethyl)-1,7,7-trimethyl-5-oxo-4-pyridin-3-yl-1,4,5,6,7,8-hexahydro-quinoline-3-carboxylic acid ethyl ester]
- pEC50 (primary rat hepatocytes): < 4.30

Structure (SMILES): CCOC(=O)C1=C(COCCN)NC2=C(C(=O)CC(C)(C)C2)C1c1ccccc1OC (stereo not shown) [Compound 16, 2-(2-Amino-ethoxymethyl)-4-(2-methoxy-phenyl)-7,7-dimethyl-5-oxo-1,4,5,6,7,8-hexahydro-quinoline-3-carboxylic acid ethyl ester]
- pEC50 (primary rat hepatocytes): < 4.30

Structure (SMILES): CN(CCOc1ccc(CC2SC(=O)NC2=O)cc1)c1ccccn1 (stereo not shown) [rosiglitazone, reference compound]
- Serum Glucose % Pre-Treatment Baseline (C57BLKS/J-m+/+Lepr db; Day 3, rosiglitazone 0.5 mg/kg): 90.3 ± 3.1%
- Serum Glucose % Normalized Reduction (C57BLKS/J-m+/+Lepr db; Day 3, rosiglitazone 0.5 mg/kg): (15.3) %
- Serum Glucose % Pre-Treatment Baseline (C57BLKS/J-m+/+Lepr db; Day 6, rosiglitazone 0.5 mg/kg): 79.1 ± 1.9%
- Serum Glucose % Normalized Reduction (C57BLKS/J-m+/+Lepr db; Day 6, rosiglitazone 0.5 mg/kg): 28.8%
- Serum Glucose % Normalized Reduction (C57BLKS/J-m+/+Lepr db; Day 6, rosiglitazone 0.5 mg/kg, listed as Rosiglitazone): (28.8) %
- Serum Glucose % Pre-Treatment Baseline (db/db mice; [6]): 72.2 ± 6.5%
- serum glucose % Reduction relative to vehicle (db/db mice; [6]): (22.4) %
- Serum Glucose % Pre-Treatment Baseline (db/db mice; [7]): 61.2 ± 6.6%
- serum glucose % Reduction relative to vehicle (db/db mice; [7]): (39.5) %
- blood glucose after oral glucose loading (male ob/ob mice; rosiglitazone 1 mg/kg (FIG. 1), 4 hours post-glucose loading): ~300 mg/dL

Structure (SMILES): CC1=C(C#N)C(C2CC2)C2=C(CC(C)(C)CC2=O)N1 (stereo not shown) [Compound 222, 2,7,7-Trimethyl-4-cyclopropyl-5-oxo-1,4,5,6,7,8-hexahydro-quinoline-3-carbonitrile]
- pEC50 (primary rat hepatocytes): < 4.30

Structure (SMILES): CCOC(=O)C1=C(COCCN)NC2=C(C(=O)CC(C)(C)C2)C1c1ccccn1 (stereo not shown) [Compound 9, 2-(2-amino-ethoxymethyl)-7,7-dimethyl-5-oxo-4-pyridin-2-yl-1,4,5,6,7,8-hexahydro-quinoline-3-carboxylic acid ethyl ester]
- pEC50 (primary rat hepatocytes): < 4.30
- percent normalized reduction in blood glucose relative to vehicle control ([2]; day 3, 50 mg/kg oral gavage once daily): 13.6%
- percent normalized reduction in blood glucose relative to vehicle control ([2]; day 7, 50 mg/kg oral gavage once daily): 21.1%

Structure (SMILES): CCOC(=O)C1=C(COCCN)NC(C)=C(C(=O)OC)C1c1ccccc1Cl (stereo not shown) [Amlodipine, amlodipine, reference compound]
- Lethal Dose (Male SD rats): ˜12.7 mg/kg

Structure (SMILES): CN(C)C(=N)N=C(N)N [metformin]
- Serum Glucose % Pre-Treatment Baseline (db/db mice; [8]): 68.5 ± 3.7%
- serum glucose % Reduction relative to vehicle (db/db mice; [8]): (26.4) %
- Serum Glucose % Pre-Treatment Baseline (db/db mice; [9]): 72.2 ± 5.7%
- serum glucose % Reduction relative to vehicle (db/db mice; [9]): (28.7) %
- change in vivo at 150 mg/kg [3]: -48.7%
- blood glucose after oral glucose loading (male ob/ob mice; metformin 100 mg/kg (FIG. 1), glucose 3 g/kg, fasted ob/ob mice): approximately 200 mg/dl

Structure (SMILES): CCOC(=O)C1=C(COCCN)NC2=C(C(=O)CC(C)(C)C2)C1c1ccccc1F (stereo not shown) [Compound 12, 2-(2-amino-ethoxymethyl)-4-(2-fluoro-phenyl)-7,7-dimethyl-5-oxo-1,4,5,6,7,8-hexahydro-quinoline-3-carboxylic acid ethyl ester]
- pEC50 (primary rat hepatocytes): < 4.30

Structure (SMILES): CCOC(=O)C1=C(C)NC2=C(C(=O)CC(C)(C)C2)C1c1cccnc1 (stereo not shown) [Compound 202, 2,7,7-Trimethyl-4-(pyrid-3-yl)-5-oxo-1,4,5,6,7,8-hexahydro-quinoline-3-carboxylic acid ethyl ester]
- pEC50 (primary rat hepatocytes): < 4.30
